Data from PubChem BioAssay AID493105 (The Scripps Research Institute Molecular Screening Center, 2011).
The source made the active and inactive calls. The rule behind the calls is not given here.

Key:
Assay in all cases: LYPLA1 and LYPLA2 inhibitors, biochemical, gel-based ABPP, fluorescence, recombinant and endogenous enzyme (AID 493105)
[1] = tested on: rhLYPLA1; conditions: fluorescent probe labeling, soluble fraction, at 20 µM, hits give high values
[2] = tested on: emLYPLA2; conditions: fluorescent probe labeling, membrane fraction, at 20 µM, hits give high values
[3] = tested on: emLYPLA1; conditions: fluorescent probe labeling, membrane fraction, at 20 µM, hits give high values
[4] = tested on: rhLYPLA2; conditions: fluorescent probe labeling, membrane fraction, at 20 µM, hits give high values

## O=C(O)c1ccc2c(c1)C(=O)N(CCCCCCCN1C(=O)c3ccc(C(=O)O)cc3C1=O)C2=O
[1]
  inhibition: 65%
[2]
  inhibition: 3% (inactive)
[3]
  inhibition: 23% (inactive)
[4]
  inhibition: 0% (inactive)

## O=C(CCCCCCN1C(=O)c2ccccc2C1=O)N1CCC(c2ccccc2)C1 (configuration not stated)
[1]
  inhibition: 17% (inactive)
[2]
  inhibition: 17% (inactive)
[3]
  inhibition: 0% (inactive)
[4]
  inhibition: 2% (inactive)

## Cc1[nH]c2ccccc2c1C(=O)CN1CCN(C/C=C/c2ccccc2)CC1
[1]
  inhibition: 0% (inactive)
[2]
  inhibition: 0% (inactive)
[3]
  inhibition: 0% (inactive)
[4]
  inhibition: 0% (inactive)

## O=C(COc1ccc(Cl)cc1)N1CCN(C/C=C/c2ccccc2)CC1
[1]
  inhibition: 0% (inactive)
[2]
  inhibition: 25% (inactive)
[4]
  inhibition: 12% (inactive)

## CC(NC(=O)c1ccco1)C(=O)N1CCN(c2cccc(C(F)(F)F)c2)CC1 (configuration not stated)
[1]
  inhibition: 20% (inactive)
[2]
  inhibition: 12% (inactive)
[3]
  inhibition: 0% (inactive)
[4]
  inhibition: 5% (inactive)

## O=C(Nc1ccc2oc(-c3cccnc3)nc2c1)c1ccc2c(c1)OCCO2
[1]
  inhibition: 0% (inactive)
[2]
  inhibition: 0% (inactive)
[3]
  inhibition: 0% (inactive)
[4]
  inhibition: 0% (inactive)

## O=[N+]([O-])c1ccc(N2CCC(=NOCc3ccc(Cl)cc3)CC2)cc1
[1]
  inhibition: 22% (inactive)
[2]
  inhibition: 13% (inactive)
[3]
  inhibition: 12% (inactive)
[4]
  inhibition: 0% (inactive)

## O=C(COc1ccc(Br)cc1)N1CCN(c2ccc([N+](=O)[O-])c(N3CCCCC3)c2)CC1
[1]
  inhibition: 45%
[2]
  inhibition: 3% (inactive)
[3]
  inhibition: 0% (inactive)
[4]
  inhibition: 7% (inactive)

## Cc1ccc(OCC(=O)N2CCN(c3ccc([N+](=O)[O-])c(N4CCOCC4)c3)CC2)cc1
[1]
  inhibition: 10% (inactive)
[2]
  inhibition: 0% (inactive)
[3]
  inhibition: 0% (inactive)
[4]
  inhibition: 0% (inactive)

## C/C(=C\c1ccccc1)CN1CCN(c2cccc(Cl)c2)CC1
[1]
  inhibition: 0% (inactive)
[2]
  inhibition: 0% (inactive)
[3]
  inhibition: 0% (inactive)
[4]
  inhibition: 0% (inactive)

## COc1ccc(/C=C2/Sc3ccc(C(=O)NCCCN4CCOCC4)cc3NC2=O)cc1OC
[1]
  inhibition: 0% (inactive)
[2]
  inhibition: 0% (inactive)
[3]
  inhibition: 5% (inactive)
[4]
  inhibition: 1% (inactive)

## COc1cc([C@H]2Oc3cc([C@H]4Oc5cc(O)cc(O)c5C(=O)[C@@H]4O)ccc3O[C@@H]2CO)ccc1O
[1]
  inhibition: 13% (inactive)
[2]
  inhibition: 42%
[4]
  inhibition: 28% (inactive)

## COc1ccc(C(=O)NC(=S)Nc2ccc(N3CCOCC3)c(Cl)c2)cc1[N+](=O)[O-]
[1]
  inhibition: 7% (inactive)
[2]
  inhibition: 1% (inactive)
[4]
  inhibition: 5% (inactive)

## O=C(C1CCC(Cn2c(=S)[nH]c3ccccc3c2=O)CC1)N1CCN(c2ccccc2)CC1 (configuration not stated)
[1]
  inhibition: 0% (inactive)
[2]
  inhibition: 8% (inactive)
[3]
  inhibition: 0% (inactive)
[4]
  inhibition: 13% (inactive)

## COc1ccc(-n2nc(C(=O)NCC(=O)N3CCN(Cc4ccccc4)CC3)c3ccccc3c2=O)cc1
[1]
  inhibition: 17% (inactive)
[2]
  inhibition: 43%
[4]
  inhibition: 17% (inactive)

## COc1ccc(OC)c(NC(=O)C2CCC(CNc3c(N4CCC(C)CC4)c(=O)c3=O)CC2)c1 (configuration not stated)
[1]
  inhibition: 27% (inactive)
[2]
  inhibition: 3% (inactive)
[3]
  inhibition: 2% (inactive)
[4]
  inhibition: 7% (inactive)

## Cc1ccc(CN2CCN(/N=C/C=C/c3ccccc3[N+](=O)[O-])CC2)cc1
[1]
  inhibition: 27% (inactive)
[2]
  inhibition: 26% (inactive)
[3]
  inhibition: 0% (inactive)
[4]
  inhibition: 10% (inactive)

## CCC(=O)N1CCN(c2ccc(NC(=S)NC(=O)c3ccc(OC)c([N+](=O)[O-])c3)cc2)CC1
[1]
  inhibition: 25% (inactive)
[2]
  inhibition: 40%
[3]
  inhibition: 13% (inactive)
[4]
  inhibition: 21% (inactive)

## CCC(=O)N1CCN(c2ccc(NC(=S)NC(=O)c3cccc([N+](=O)[O-])c3)cc2)CC1
[1]
  inhibition: 0% (inactive)
[2]
  inhibition: 6% (inactive)
[3]
  inhibition: 8% (inactive)
[4]
  inhibition: 5% (inactive)

## COc1ccc(-n2nc(C(=O)NCC(=O)N3CCN(Cc4ccc5c(c4)OCO5)CC3)c3ccccc3c2=O)cc1OC
[1]
  inhibition: 35%
[2]
  inhibition: 68%
[3]
  inhibition: 8% (inactive)
[4]
  inhibition: 50%

## Cc1c(Br)c([N+](=O)[O-])nn1CC(=O)Nc1ccc(Cc2ccncc2)cc1
[1]
  inhibition: 0% (inactive)
[2]
  inhibition: 8% (inactive)
[3]
  inhibition: 8% (inactive)
[4]
  inhibition: 0% (inactive)

## O=C(N1CCOCC1)n1nnc2ccccc21
[1]
  inhibition: 98%
[2]
  inhibition: 88%
[3]
  inhibition: 99%
[4]
  inhibition: 76%

## CC(=O)N1CCC2(CC1)C/C(=N\NC(=S)Nc1ccccc1C)c1cc(O)ccc1O2
[1]
  inhibition: 0% (inactive)
[2]
  inhibition: 5% (inactive)
[3]
  inhibition: 2% (inactive)
[4]
  inhibition: 3% (inactive)

## COc1ccc2c(c1)C(=O)[C@H](O)[C@@H](c1ccc(OC)c(Br)c1)O2
[1]
  inhibition: 0% (inactive)
[2]
  inhibition: 73%
[3]
  inhibition: 0% (inactive)
[4]
  inhibition: 51%

## Cc1ccc(OCC(=O)N2CCN(C(=O)CCC3CCCC3)CC2)cc1
[1]
  inhibition: 43%
[2]
  inhibition: 14% (inactive)
[3]
  inhibition: 14% (inactive)
[4]
  inhibition: 3% (inactive)

## COc1ccc(N2CCN(C(=O)C3CCC(Cn4c(=S)[nH]c5ccccc5c4=O)CC3)CC2)cc1 (configuration not stated)
[1]
  inhibition: 0% (inactive)
[2]
  inhibition: 67%
[3]
  inhibition: 2% (inactive)
[4]
  inhibition: 45%

## Cc1cc(OCc2cc(C(=O)N3CCC(Oc4cccnc4)CC3)no2)cc(C)c1Cl
[1]
  inhibition: 0% (inactive)
[2]
  inhibition: 5% (inactive)
[4]
  inhibition: 3% (inactive)

## OC(COc1ccc(Cl)cc1)CN1CCN(c2cccc(Cl)c2)CC1 (configuration not stated)
[1]
  inhibition: 0% (inactive)
[2]
  inhibition: 0% (inactive)
[3]
  inhibition: 0% (inactive)
[4]
  inhibition: 0% (inactive)

## Cc1ccc([N+](=O)[O-])c(OCCCN2CCC(Cc3ccccc3)CC2)c1
[1]
  inhibition: 7% (inactive)
[2]
  inhibition: 2% (inactive)
[3]
  inhibition: 0% (inactive)
[4]
  inhibition: 0% (inactive)

## CC(=O)N1CCC2(CC1)C/C(=N\NC(=S)Nc1ccc(C)cc1)c1cc(O)ccc1O2
[1]
  inhibition: 3% (inactive)
[2]
  inhibition: 1% (inactive)
[3]
  inhibition: 0% (inactive)
[4]
  inhibition: 0% (inactive)

## CC1CCc2c(sc(NC(=O)CN3CCN(C(=O)c4ccco4)CC3)c2C#N)C1 (configuration not stated)
[1]
  inhibition: 16% (inactive)
[2]
  inhibition: 0% (inactive)
[3]
  inhibition: 3% (inactive)
[4]
  inhibition: 0% (inactive)

## CC1CN(Cc2cc(=O)oc3cc(O)c(Cl)cc23)CC(C)O1 (configuration not stated)
[1]
  inhibition: 0% (inactive)
[2]
  inhibition: 0% (inactive)
[3]
  inhibition: 0% (inactive)
[4]
  inhibition: 3% (inactive)

## O=C(COc1ccc(Cl)cc1)N1CCN(c2ccc([N+](=O)[O-])c(N3CCOCC3)c2)CC1
[1]
  inhibition: 47%
[2]
  inhibition: 0% (inactive)
[3]
  inhibition: 0% (inactive)
[4]
  inhibition: 3% (inactive)

## COc1ccc(S(=O)(=O)Nc2ccc(Cc3ccncc3)cc2)cc1C
[1]
  inhibition: 12% (inactive)
[2]
  inhibition: 0% (inactive)
[4]
  inhibition: 0% (inactive)

## O=C(c1cc(COc2cccc(C(F)(F)F)c2)on1)N1CCC(Oc2cccnc2)CC1
[1]
  inhibition: 0% (inactive)
[2]
  inhibition: 0% (inactive)
[4]
  inhibition: 0% (inactive)

## O=C(c1ccc(S(=O)(=O)N2CCCCC2)cc1)N1CCN(CCN2C(=O)c3cccc4cccc(c34)C2=O)CC1
[1]
  inhibition: 11% (inactive)
[2]
  inhibition: 27% (inactive)
[4]
  inhibition: 20% (inactive)

## Nc1nc(NCc2ccco2)nc(N2CCN(Cc3ccccc3)CC2)c1[N+](=O)[O-]
[1]
  inhibition: 2% (inactive)
[2]
  inhibition: 1% (inactive)
[4]
  inhibition: 5% (inactive)

## O=c1[nH]c(CN2CCN(C/C=C/c3ccccc3)CC2)nc2cc(Cl)ccc12
[1]
  inhibition: 3% (inactive)
[2]
  inhibition: 2% (inactive)
[4]
  inhibition: 0% (inactive)

## COc1ccc(N2CCN(C(=O)CCCCCn3c(=O)[nH]c4ccsc4c3=O)CC2)cc1
[1]
  inhibition: 0% (inactive)
[2]
  inhibition: 6% (inactive)
[4]
  inhibition: 6% (inactive)

## CSc1ccccc1OCc1cc(C(=O)N2CCC(Oc3cccnc3)CC2)no1
[1]
  inhibition: 0% (inactive)
[2]
  inhibition: 16% (inactive)
[4]
  inhibition: 6% (inactive)

## O=C(/C=C/c1ccccc1)N1CCN(CCN2C(=O)c3cccc4cccc(c34)C2=O)CC1
[1]
  inhibition: 15% (inactive)
[2]
  inhibition: 34%
[4]
  inhibition: 18% (inactive)

## COc1ccccc1-c1csc(-n2ncc(C#N)c2N)n1
[1]
  inhibition: 0% (inactive)
[2]
  inhibition: 6% (inactive)
[4]
  inhibition: 4% (inactive)

## CCOc1ccc(NC(=S)NC(=O)c2c(Br)cnn2C)c([N+](=O)[O-])c1
[1]
  inhibition: 17% (inactive)
[2]
  inhibition: 16% (inactive)
[4]
  inhibition: 5% (inactive)

## O=C(/C=C/c1ccc(Br)cc1)N1CCN(c2cccc(C(F)(F)F)c2)CC1
[1]
  inhibition: 16% (inactive)
[2]
  inhibition: 16% (inactive)
[4]
  inhibition: 15% (inactive)

## O=C(NC(=S)Nc1sc2c(c1C(=O)O)CCCC2)c1ccccc1
[1]
  inhibition: 2% (inactive)
[2]
  inhibition: 52%
[4]
  inhibition: 34%

## O=C(COc1ccc(Cl)cc1)N1CCN(c2ccc([N+](=O)[O-])c(N3CCCCC3)c2)CC1
[1]
  inhibition: 36%
[2]
  inhibition: 10% (inactive)
[4]
  inhibition: 5% (inactive)

## O=C(c1ccc(-c2ccccc2)c(F)c1)C1CCCN(C(=O)c2cncs2)C1 (configuration not stated)
[1]
  inhibition: 0% (inactive)
[2]
  inhibition: 12% (inactive)
[4]
  inhibition: 6% (inactive)

## Cc1ccc(N2CCN(C3=NC(=O)/C(=C\c4cccs4)S3)CC2)cc1
[1]
  inhibition: 0% (inactive)
[2]
  inhibition: 0% (inactive)
[4]
  inhibition: 5% (inactive)
